From US10822376B2, “Biologically active peptides” (Baxalta Incorporated, priority 2008, dated 2020)
Where a SMILES comes first, the peptide text is derived from it. Bridges are numbered along the chain shown (N, C = ends). Roman numbers before positions name the chains, in order. [ ]: non-standard residue; d: D form.

Legend:
FVIII deficient plasma = test: Defined Dual-Pathway Thrombin Generation Assay (DDPTGA, reagent C high), FVIII deficient plasma; assay type: biochemical, human; conditions: for Effect on both peak time and peak IIa of thrombin generation: DDPTGA, comment on Table 10; for Peak IIa FVIII EU / Peak Time FVIII EU: FVIII deficient plasma
Description: (§1) The intrinsic pathway of thrombin generation may be assayed in a thrombin generation assay by including FXIa and phospholipids. In such an assay, which is similar to an activated partial thromboplastin time (aPTT) test, thrombin generation is solely directed through the intrinsic pathway, and is FVIII dependent. A suitable assay is the Defined Intrinsic Thrombin Generation Assay described below. Alternatively, by employing low concentrations of TF and phospholipids instead of FXIa and phospholipids, thrombin is generated by both the extrinsic (tissue factor) and the intrinsic pathways. This form of the thrombin generation assay is the more physiologic one, as both thrombin generation pathways are involved; it is partially FVIII dependent. A suitable assay is the Defined Dual-Pathway Thrombin Generation Assay.
(§2) Preferably, Reagent C high is used.
(§3) Tissue factor dependency of peak thrombin generation and thrombin peak time was characterised in a composition containing a fixed concentration of phospholipid (namely 3.2 μM). Phospholipid dependency was characterised in a composition containing a fixed concentration of tissue factor (namely 7.2 μM). Peak time (time to peak thrombin generation) was dependent on the concentration of phospholipid or tissue factor. The final version of this assay is as described in the specific description, in which 10 μl reagent C high containing (32 μM phospholipid and 71.6 μM tissue factor) is used in a total volume of 100 μl.
(§4) Further studies were conducted using 3.2 μM phospholipid and 7.2 μM tissue factor in FVIII deficient or inhibited plasma, to characterise the effect on peak thrombin generation and thrombin peak time of various coagulation factor preparations. These studies provided a basis from which to compare the efficacy of the compounds in the assay. Briefly, rFVIII (Recombinate® FVIII from Baxter) was tested at 0, 5, 10, 20, 40 and 80 mU/ml in FVIII deficient plasma. FEIBA was tested at 0, 8, 16, 31, 63 and 125 mU/ml in FVIII inhibited plasma. FVIIa was tested at 0, 0.1, 0.4, 1.6, 6.3 and 25 nM in FVIII inhibited plasma. […] Peak thrombin increased and both the lag time and the thrombin peak time decrease.

FVIII inhibited plasma = test: Defined Dual-Pathway Thrombin Generation Assay (DDPTGA, reagent C high), FVIII inhibited plasma; assay type: biochemical, human; conditions: for Peak IIa FEIBA EU / Peak IIa FVIIa EU / Peak Time FEIBA EU / Peak Time FVIIa EU: FVIII inhibited plasma; for Activity in the Defined Dual-Pathway Thrombin Generation Assay: summary, FVIII inhibited or deficient plasma
Description: as §1, §2, §3, §4

[1] = test system: human FVIII inhibited plasma; test: Defined Intrinsic Thrombin Generation Assay (DITGA, triggered by FXIa and phospholipids); assay type: biochemical
Description: as §1
The Defined Intrinsic Thrombin Generation Assay is performed as follows. FVIII activity of human plasma is inhibited by incubating (2 hours, 37° C.) 40 μl of human normal plasma with 10 μl heat inactivated anti-human FVIII plasma raised in goat (600 BU/ml, 6 hours incubated at 56° C.). […] Instead of FVIII-inhibited plasma, FVIII inhibitor patient plasma or several depleted plasmas can be used. The micro-plate is immediately put into a GENios Plus (Tecan) or Safire 2 (Tecan) fluorescence reader and the fluorescence signal (ex 340 nm/em 440 nm) is followed kinetically by reading the plate every 21 seconds.
For calculation of activity equivalent units experiments are performed with dilutions of Factor Eight Inhibitor Bypassing Agent (FEIBA, Baxter AG), Immunate (human FVIII, purified plasma derived) reference standard (Baxter AG) or Recombinate standard (human FVIII, purified recombinant, Baxter AG). A linear fit of the logarithm of FEIBA (FVIII) concentration plotted against thrombin generation time at peak thrombin results in a standard curve. With this curve FEIBA (FVIII) equivalent activity is calculated for a defined peptide concentration. […] Thus, where a concentration of 100 μM is given, the actual concentration in the final assay volume in 40 μM.
Compounds were screened using the “Defined intrinsic thrombin generation assay” in which thrombin generation was quantified in vitro in FVIII-inhibited human plasma in the presence of Factor XIa and phospholipid vesicles. Further compounds were screened in the above assay, and in the “Defined dual-pathway thrombin generation assay” using tissue factor and phospholipids instead of Factor XIa and phospholipids, as described in the specific description.
Various concentrations of each peptide were tested in the defined intrinsic thrombin generation assay using human FVIII inhibited plasma.

Molecule	Effect on both peak time and peak IIa of thrombin generation (FVIII deficient plasma)	Peak IIa FVIII EU (FVIII deficient plasma; peptide 100 μM)	Peak Time FVIII EU (FVIII deficient plasma; peptide 100 μM)	Peak IIa FEIBA EU (FVIII inhibited plasma; peptide 100 μM)	Peak IIa FVIIa EU (FVIII inhibited plasma; peptide 100 μM)	Peak Time FEIBA EU (FVIII inhibited plasma; peptide 100 μM)	Peak Time FVIIa EU (FVIII inhibited plasma; peptide 100 μM)	Activity in the Defined Dual-Pathway Thrombin Generation Assay (FVIII inhibited plasma)	Peak IIa FVIII EU (FVIII deficient plasma; peptide 50 μM)	Peak Time FVIII EU (FVIII deficient plasma; peptide 50 μM)	Peak IIa FEIBA EU (FVIII inhibited plasma; peptide 50 μM)	Peak IIa FVIIa EU (FVIII inhibited plasma; peptide 50 μM)	Peak Time FEIBA EU (FVIII inhibited plasma; peptide 50 μM)	Peak Time FVIIa EU (FVIII inhibited plasma; peptide 50 μM)	further results
CC[C@@H](C)[C@@H](NC(=O)[C@@H](CSSC[C@@H](NC(C)=O)C(=O)N[C@@H](C(=O)N[C@H](CCSC)C(=O)N[C@H](Cc1ccccc1)C(=O)N[C@H](Cc1c[nH]c2ccccc12)C(=O)N[C@H](Cc1ccc(O)cc1)C(=O)N[C@H](CC(=O)O)C(=O)N[C@H](CCC(=O)O)C(=O)N[C@H](Cc1ccc(O)cc1)C(=O)N[C@H](CCC(=O)O)C(N)=O)[C@H](C)CC)NC(C)=O)C(=O)N[C@H](CCSC)C(=O)N[C@H](Cc1ccccc1)C(=O)N[C@H](Cc1c[nH]c2ccccc12)C(=O)N[C@H](Cc1ccc(O)cc1)C(=O)N[C@H](CC(=O)O)C(=O)N[C@H](CCC(=O)O)C(=O)N[C@H](Cc1ccc(O)cc1)C(=O)N[C@H](CCC(=O)O)C(N)=O [Peptide B04, Disulphide-Dimer(Ac-cimfwydeye-NH2)2] (I: Ac-[dC][dI][dM][dF][dW][dY][dD][dE][dY][dE]-NH2 / II: Ac-[dC][dI][dM][dF][dW][dY][dD][dE][dY][dE]-NH2; disulfide I:1-II:1)	positively affected	5.0 mU/ml	1.6 mU/ml	13.3 mU/ml	0.7 nM	BLS (BLS = below lowest standard.)	BLS (BLS = below lowest standard.)	possess activity							Peak IIa FVIII EU (FVIII deficient plasma; peptide 16 μM): 4.4 mU/ml; Peak Time FVIII EU (FVIII deficient plasma; peptide 16 μM): 4.1 mU/ml; Peak IIa FVIII EU (FVIII deficient plasma; peptide 40 μM): 4.8 mU/ml; Peak Time FVIII EU (FVIII deficient plasma; peptide 40 μM): 7.3 mU/ml; Peak IIa FEIBA EU (FVIII inhibited plasma; peptide 16 μM): BLS (BLS = below lowest standard.); Peak IIa FVIIa EU (FVIII inhibited plasma; peptide 16 μM): 0.1 nM; Peak Time FEIBA EU (FVIII inhibited plasma; peptide 16 μM): BLS (BLS = below lowest standard.); Peak Time FVIIa EU (FVIII inhibited plasma; peptide 16 μM): BLS (BLS = below lowest standard.); Peak IIa FEIBA EU (FVIII inhibited plasma; peptide 40 μM): 12.8 mU/ml; Peak IIa FVIIa EU (FVIII inhibited plasma; peptide 40 μM): 0.6 nM; Peak Time FEIBA EU (FVIII inhibited plasma; peptide 40 μM): BLS (BLS = below lowest standard.); Peak Time FVIIa EU (FVIII inhibited plasma; peptide 40 μM): BLS (BLS = below lowest standard.)
Ac-WDLYFEISW-ttds-E [Peptide A15]	positively affected	5.0 mU/ml	12.7 mU/ml	13.6 mU/ml	0.7 nM	BLS (BLS = below lowest standard.)	BLS (BLS = below lowest standard.)	possess activity	4.3 mU/ml	14.4 mU/ml	BLS (BLS = below lowest standard.)	BLS (BLS = below lowest standard.)	BLS (BLS = below lowest standard.)	BLS (BLS = below lowest standard.)	
Ac-WDLYFEIVW-ttds-K [Peptide A20]															Thrombin peak time given as FEIBA equivalent activity ([1]; peptide 6.25 μM): 391 mU/ml; Thrombin peak time given as FEIBA equivalent activity ([1]; peptide 12.5 μM): 501 mU/ml; Thrombin peak time given as FEIBA equivalent activity ([1]; peptide 25 μM): 597 mU/ml; Thrombin peak time given as FEIBA equivalent activity ([1]; peptide 50 μM): 873 mU/ml; Thrombin peak time given as FEIBA equivalent activity ([1]; peptide 100 μM): 1101 mU/ml; Activity in the Defined Intrinsic Thrombin Generation Assay ([1]; summary): possess activity
Ac-WSLYFEIVWE [Peptide A14]		BLS (BLS = below lowest standard.)	BLS (BLS = below lowest standard.)	BLS (BLS = below lowest standard.)	BLS (BLS = below lowest standard.)	BLS (BLS = below lowest standard.)	BLS (BLS = below lowest standard.)		BLS (BLS = below lowest standard.)	BLS (BLS = below lowest standard.)	BLS (BLS = below lowest standard.)	BLS (BLS = below lowest standard.)	BLS (BLS = below lowest standard.)	BLS (BLS = below lowest standard.)	
PEG5000-ERMEFDVWDLYFEIVW-NH2 [Peptide A18]		BLS (BLS = below lowest standard.)	17.1 mU/ml	BLS (BLS = below lowest standard.)	BLS (BLS = below lowest standard.)	BLS (BLS = below lowest standard.)	BLS (BLS = below lowest standard.)	possess activity	BLS (BLS = below lowest standard.)	BLS (BLS = below lowest standard.)	BLS (BLS = below lowest standard.)	BLS (BLS = below lowest standard.)	BLS (BLS = below lowest standard.)	BLS (BLS = below lowest standard.)	
